Measurements published in ChEMBL document CHEMBL3390836, “Mannich- and LedererManasse-based analogues of the natural product S-(+)-curcuphenol as cancer proliferation and migration inhibitors” (Medchemcomm, 2012).

Tests used:
Assay type in all cases: functional
A498 = assay: Cytotoxicity against human A498 cells assessed as cell growth at 10^-6 M after 48 hrs by SRB assay relative to control; conditions: A498, 48 h, read-out: Activity
MDA-MB-468 [1] = assay: Cytotoxicity against human MDA-MB-468 cells assessed as cell growth at 10^-6 M after 48 hrs by SRB assay relative to control; conditions: MDA-MB-468, 48 h, read-out: Activity
SK-MEL-5 = assay: Cytotoxicity against human SK-MEL-5 cells assessed as cell growth at 10^-8 M after 48 hrs by SRB assay relative to control; conditions: SK-MEL-5, 48 h, read-out: Activity
SK-MEL-2 = assay: Cytotoxicity against human SK-MEL-2 cells assessed as cell growth at 10^-8 M after 48 hrs by SRB assay relative to control; conditions: SK-MEL-2, 48 h, read-out: Activity
NCI-H322M = assay: Cytotoxicity against human NCI-H322M cells assessed as cell growth at 10^-6 M after 48 hrs by SRB assay relative to control; conditions: read-out: Activity
MDA-MB-468 [2] = assay: Cytotoxicity against human MDA-MB-468 cells after 48 hrs by SRB assay; conditions: MDA-MB-468, 48 h
HOP-62 = assay: Cytotoxicity against human HOP62 cells after 48 hrs by SRB assay; conditions: HOP-62, 48 h
SF-539 [3] = assay: Cytotoxicity against human SF539 cells assessed as cell growth at 10^-4 M after 48 hrs by SRB assay relative to control; conditions: SF-539, 48 h, read-out: Activity
RXF 393 = assay: Cytotoxicity against human RXF393 cells assessed as cell growth at 10^-7 M after 48 hrs by SRB assay relative to control; conditions: RXF 393, 48 h, read-out: Activity
COLO 205 = assay: Cytotoxicity against human COLO205 cells assessed as cell growth at 10^-6 M after 48 hrs by SRB assay relative to control; conditions: COLO 205, 48 h, read-out: Activity
[4] = Cytotoxicity against human EKVX cells after 48 hrs by SRB assay
[5] = Cytotoxicity against human UO31 cells assessed as cell growth at 10^-8 M after 48 hrs by SRB assay relative to control; conditions: UO-31, 48 h, read-out: Activity
HCC 2998 = assay: Cytotoxicity against human HCC2998 cells assessed as cell growth at 10^-8 M after 48 hrs by SRB assay relative to control; conditions: HCC 2998, 48 h, read-out: Activity
SNB-75 = assay: Cytotoxicity against human SNB75 cells assessed as cell growth at 10^-6 M after 48 hrs by SRB assay relative to control; conditions: SNB-75, 48 h, read-out: Activity
[6] = Cytotoxicity against human UACC62 cells assessed as cell growth at 10^-7 M after 48 hrs by SRB assay relative to control; conditions: UACC-62, 48 h, read-out: Activity
SW-620 = assay: Cytotoxicity against human SW620 cells assessed as cell growth at 10^-8 M after 48 hrs by SRB assay relative to control; conditions: SW-620, 48 h, read-out: Activity
[7] = Cytotoxicity against human NCI-ADR-RES cells assessed as cell growth at 10^-6 M after 48 hrs by SRB assay relative to control; conditions: read-out: Activity
ACHN = assay: Cytotoxicity against human ACHN cells assessed as cell growth at 10^-7 M after 48 hrs by SRB assay relative to control; conditions: read-out: Activity
SNB-19 = assay: Cytotoxicity against human SNB19 cells assessed as cell growth at 10^-8 M after 48 hrs by SRB assay relative to control; conditions: SNB-19, 48 h, read-out: Activity
SF-539 [8] = assay: Cytotoxicity against human SF539 cells assessed as cell growth at 10^-7 M after 48 hrs by SRB assay relative to control; conditions: SF-539, 48 h, read-out: Activity
MOLT-4 = assay: Cytotoxicity against human MOLT4 cells assessed as cell growth at 10^-7 M after 48 hrs by SRB assay relative to control; conditions: MOLT-4, 48 h, read-out: Activity
LOX IMVI = assay: Cytotoxicity against human LOXIMVI cells assessed as cell growth at 10^-6 M after 48 hrs by SRB assay relative to control; conditions: read-out: Activity
RPMI-8226 = assay: Cytotoxicity against human RPMI8226 cells assessed as cell growth at 10^-6 M after 48 hrs by SRB assay relative to control; conditions: RPMI-8226, 48 h, read-out: Activity
KM12 = assay: Cytotoxicity against human KM12 cells after 48 hrs by SRB assay; conditions: KM12, 48 h; for CC50: read-out: LC50 (the source's name)
[9] = Cytotoxicity against human EKVX cells assessed as cell growth at 10^-8 M after 48 hrs by SRB assay relative to control; conditions: read-out: Activity
NCI-H23 = assay: Cytotoxicity against human NCI-H23 cells after 48 hrs by SRB assay; conditions: NCI-H23, 48 h
A549 = assay: Cytotoxicity against human A549 cells assessed as cell growth at 10^-4 M after 48 hrs by SRB assay relative to control; conditions: A549, 48 h, read-out: Activity
SR [10] = assay: Cytotoxicity against human SR cells assessed as cell growth at 10^-8 M after 48 hrs by SRB assay relative to control; conditions: read-out: Activity
BT-549 [11] = assay: Cytotoxicity against human BT549 cells assessed as cell growth at 10^-6 M after 48 hrs by SRB assay relative to control; conditions: BT-549, 48 h, read-out: Activity
DU-145 [12] = assay: Cytotoxicity against human DU145 cells assessed as cell growth at 10^-6 M after 48 hrs by SRB assay relative to control; conditions: DU-145, 48 h, read-out: Activity
BT-549 [13] = assay: Cytotoxicity against human BT549 cells after 48 hrs by SRB assay; conditions: BT-549, 48 h; for CC50: read-out: LC50 (the source's name)
DU-145 [14] = assay: Cytotoxicity against human DU145 cells assessed as cell growth at 10^-4 M after 48 hrs by SRB assay relative to control; conditions: DU-145, 48 h, read-out: Activity
BT-549 [15] = assay: Cytotoxicity against human BT549 cells assessed as cell growth at 10^-8 M after 48 hrs by SRB assay relative to control; conditions: BT-549, 48 h, read-out: Activity
SR [16] = assay: Cytotoxicity against human SR cells assessed as cell growth at 10^-6 M after 48 hrs by SRB assay relative to control; conditions: read-out: Activity
DU-145 [17] = assay: Cytotoxicity against human DU145 cells assessed as cell growth at 10^-8 M after 48 hrs by SRB assay relative to control; conditions: DU-145, 48 h, read-out: Activity
K562 = assay: Cytotoxicity against human K562 cells assessed as cell growth at 10^-4 M after 48 hrs by SRB assay relative to control; conditions: K562, 48 h, read-out: Activity

COc1ccc(CCN2COc3c([C@@H](C)CCC=C(C)C)ccc(C)c3C2)cc1OC
growth at 1 µM (A498): 68% | growth at 1 µM (MDA-MB-468 [1]): 62% | growth at 0.01 µM (SK-MEL-5): 96% | growth at 0.01 µM (SK-MEL-2): 93% | growth at 1 µM (NCI-H322M): 92% | GI50 (MDA-MB-468 [2]): 1.23 µM | LC50 (MDA-MB-468 [2]): 7.08 µM | TGI (MDA-MB-468 [2]): 9.95 µM | GI50 (HOP-62): 1.86 µM | LC50 (HOP-62): 7.05 µM | TGI (HOP-62): 36.2 µM | growth at 100 µM (SF-539 [3]): -100% | growth at 0.1 µM (RXF 393): 88% | growth at 1 µM (COLO 205): 100% | GI50 [4]: 5.14 µM | LC50 [4]: > 100 µM | TGI [4]: 25.4 µM | growth at 0.01 µM [5]: 86% | growth at 0.01 µM (HCC 2998): 77% | growth at 1 µM (SNB-75): 86% | growth at 0.1 µM [6]: 90% | growth at 0.01 µM (SW-620): 97% | growth at 1 µM [7]: 96% | growth at 0.1 µM (ACHN): 94% | growth at 0.01 µM (SNB-19): 99% | growth at 0.1 µM (SF-539 [8]): 88% | growth at 0.1 µM (MOLT-4): 89% | growth at 1 µM (LOX IMVI): 88% | growth at 1 µM (RPMI-8226): 78% | GI50 (KM12): 2.86 µM | TGI (KM12): 9.64 µM | CC50 (KM12): 46.1 µM | growth at 0.01 µM [9]: 93% | GI50 (NCI-H23): 2.55 µM | LC50 (NCI-H23): 21.8 µM | TGI (NCI-H23): 6.08 µM | growth at 100 µM (A549): -52%

CC(C)=CCC[C@H](C)c1ccc(C)c2c1OCN(CC1CCNCC1)C2
growth at 0.01 µM (SR [10]): 95% | growth at 1 µM (A498): 102% | growth at 1 µM (MDA-MB-468 [1]): 99% | growth at 0.01 µM (SK-MEL-5): 99% | growth at 0.01 µM (SK-MEL-2): 108% | growth at 1 µM (NCI-H322M): 108% | growth at 1 µM (BT-549 [11]): 104% | growth at 1 µM (DU-145 [12]): 102% | GI50 (MDA-MB-468 [2]): 5.01 µM | LC50 (MDA-MB-468 [2]): 53.1 µM | TGI (MDA-MB-468 [2]): 18.4 µM | GI50 (HOP-62): 14.8 µM | LC50 (HOP-62): 55.6 µM | TGI (HOP-62): 28.7 µM | growth at 100 µM (SF-539 [3]): -93% | growth at 0.1 µM (RXF 393): 112% | growth at 1 µM (COLO 205): 101% | GI50 (BT-549 [13]): 16.9 µM | TGI (BT-549 [13]): 41.6 µM | CC50 (BT-549 [13]): > 100 µM | growth at 100 µM (DU-145 [14]): -94% | GI50 [4]: 20.7 µM | LC50 [4]: > 100 µM | TGI [4]: 66.9 µM | growth at 0.01 µM (BT-549 [15]): 94% | growth at 0.01 µM [5]: 95% | growth at 0.01 µM (HCC 2998): 111% | growth at 1 µM (SNB-75): 85% | growth at 1 µM (SR [16]): 91% | growth at 0.1 µM [6]: 96% | growth at 0.01 µM (DU-145 [17]): 104% | growth at 0.01 µM (SW-620): 96% | growth at 1 µM [7]: 102% | growth at 0.1 µM (ACHN): 105% | growth at 100 µM (K562): -50% | growth at 0.01 µM (SNB-19): 95% | growth at 0.1 µM (SF-539 [8]): 94% | growth at 0.1 µM (MOLT-4): 104% | growth at 1 µM (LOX IMVI): 99% | growth at 1 µM (RPMI-8226): 110% | GI50 (KM12): 12.3 µM | TGI (KM12): 26 µM | CC50 (KM12): 55 µM | growth at 0.01 µM [9]: 104% | GI50 (NCI-H23): 15.7 µM | LC50 (NCI-H23): 72 µM | TGI (NCI-H23): 33.6 µM | growth at 100 µM (A549): -84%

CC(C)=CCC[C@H](C)c1ccc(C)c(CNCC2CCNCC2)c1O
growth at 0.01 µM (SR [10]): 83% | growth at 1 µM (A498): 79% | growth at 1 µM (MDA-MB-468 [1]): 90% | growth at 0.01 µM (SK-MEL-5): 93% | growth at 0.01 µM (SK-MEL-2): 102% | growth at 1 µM (NCI-H322M): 99% | growth at 1 µM (BT-549 [11]): 81% | growth at 1 µM (DU-145 [12]): 100% | GI50 (MDA-MB-468 [2]): 3.33 µM | LC50 (MDA-MB-468 [2]): 14.1 µM | TGI (MDA-MB-468 [2]): 6.86 µM | GI50 (HOP-62): 4.12 µM | LC50 (HOP-62): 17.6 µM | TGI (HOP-62): 8.5 µM | growth at 100 µM (SF-539 [3]): -77% | growth at 0.1 µM (RXF 393): 85% | growth at 1 µM (COLO 205): 107% | GI50 (BT-549 [13]): 9.72 µM | TGI (BT-549 [13]): > 25 µM | CC50 (BT-549 [13]): > 25 µM | growth at 100 µM (DU-145 [14]): 41% | GI50 [4]: 8.56 µM | LC50 [4]: > 25 µM | TGI [4]: > 25 µM | growth at 0.01 µM (BT-549 [15]): 98% | growth at 0.01 µM [5]: 88% | growth at 0.01 µM (HCC 2998): 101% | growth at 1 µM (SNB-75): 89% | growth at 1 µM (SR [16]): 87% | growth at 0.1 µM [6]: 90% | growth at 0.01 µM (DU-145 [17]): 100% | growth at 0.01 µM (SW-620): 100% | growth at 1 µM [7]: 95% | growth at 0.1 µM (ACHN): 94% | growth at 100 µM (K562): -58% | growth at 0.01 µM (SNB-19): 92% | growth at 0.1 µM (SF-539 [8]): 91% | growth at 0.1 µM (MOLT-4): 96% | growth at 1 µM (LOX IMVI): 98% | GI50 (KM12): 4.12 µM | TGI (KM12): 8.38 µM | CC50 (KM12): 17.1 µM | growth at 0.01 µM [9]: 99% | GI50 (NCI-H23): > 25 µM | LC50 (NCI-H23): > 25 µM | TGI (NCI-H23): > 25 µM
